US8785452B2, “Anti-infective compounds” (priority 2008, dated 2014)
Where two headings read alike, the source gives them in different places.

Tested on: M. tuberculosis H37Rv-GFP
Experiment: microbe, parasite or virus in culture
Type: cell-based, Mycobacterium tuberculosis
Conditions: Mycobacterium tuberculosis, H37RV, Macrophage
[1] = confirmation, 20 uM, intracellular, read-out: QIM Confirm % Inhibition 20 uM
[2] = primary screen, 20 μM, intracellular, read-out: Primary QIM % Inhibition
[3] = read-out: Primary QIM % Inhibition
[4] = read-out: QIM Confirm % Inhibition 20 uM

Row | SMILES | inhibition at 20 µM [1] [%] | inhibition at 20 µM [2] [%] | inhibition at 20 µM [3] [%] | inhibition at 20 µM [4] [%]
1 | C/C(=N\NC(=O)c1ccccc1)c1ccc2ccccc2c1 [IPK 000 139 17] | 65.8 | 72.9 |  | 
2 | NNC(=O)c1ccc(COc2ccc(Cl)cc2Cl)o1 [IPK 000 140 81] | 91.8 | 94.6 |  | 
3 | NNC(=O)c1ccc(COc2ccc(Cl)cc2)o1 [IPK 000 140 87] | 91.1 | 92.2 |  | 
4 | O=C(Nc1nccs1)c1ccc(COc2ccc(F)cc2)o1 [IPK 000 141 08] | 84 | 67.5 |  | 
5 | CCCCOC(=O)c1cc([N+](=O)[O-])c(Sc2nc3ccccc3[nH]2)c([N+](=O)[O-])c1 [IPK 000 141 58] |  |  | 58.2 | 59.2
6 | c1cc2c3c(cccc3c1)NC1(CCCCCC1)N2 [IPK 000 141 61] | 50.8 | 4.2 |  | 
7 | O=C(COc1ccc(-c2ccccc2)cc1)Nc1nc2ccccc2s1 [IPK 000 142 17] |  |  | 84.3 | 82.3
8 | CC(C)(C)c1ccc(-c2nc(Oc3ccc(O)cc3)c3ccccc3n2)cc1 [IPK 000 142 18] | 79.4 | 73.2 |  | 
9 | CC(C)(C)c1ccc(O)c(C(=O)Oc2ccccc2)c1 [IPK 000 143 45] | 83.5 | 81.2 |  | 
10 | COc1ccc(-c2csc(-c3cccnc3)n2)cc1 [IPK 000 144 22] | 30 | -9.8 |  | 
11 | O=C(Nc1ccc(C(F)(F)F)cc1)Nc1cccc(F)c1 [IPK 000 146 91] | 70 | 57 |  | 
12 | O=C(Nc1ccc(Cl)cc1)Nc1ccc(C(F)(F)F)cc1 [IPK 000 146 98] | 26.5 | 55.8 |  | 
13 | O=C(Nc1ccc(F)cc1)Nc1ccc(C(F)(F)F)cc1 [IPK 000 147 17] | 40.8 | 11.9 |  | 
14 | O=C(Nc1ccc(C(F)(F)F)cc1)Nc1cccc(Cl)c1 [IPK 000 147 54] | 10.1 | -10.9 |  | 
15 | O=C(COc1cccc(Cl)c1)N/N=C/c1ccc([N+](=O)[O-])o1 [IPK 000 147 98] | 72.3 | 6.3 |  | 
16 | O=C(COc1ccc(F)cc1)N/N=C/c1ccc([N+](=O)[O-])o1 [IPK 000 148 04] | 59.3 | 21.8 |  | 
17 | CCCC(C)c1ccc(OCC(=O)N/N=C/c2ccsc2)cc1 (centres unmarked) [IPK 000 148 11] | 86.6 | 65.4 |  | 
18 | C=CCc1ccc(OCC(=O)N/N=C/c2ccc([N+](=O)[O-])o2)c(OC)c1 [IPK 000 148 44] | 8.2 | -15.1 |  | 
19 | O=C(CCCCC1=CCCS1)Nc1ccc(C(F)(F)F)cc1 [IPK 000 148 64] | 71.4 | 72.5 |  | 
20 | CCOc1ncccc1C(=O)N/N=C/c1ccc([N+](=O)[O-])o1 [IPK 000 148 65] | 29.1 | 41.2 |  | 
21 | O=c1[nH]cc(Sc2cccc3cccnc23)c(=O)[nH]1 [IPK 000 149 02] | 19.1 | 23.5 |  | 
22 | O=C(NNC(=O)c1cc([N+](=O)[O-])cc([N+](=O)[O-])c1)c1ccc(COc2ccc3c(c2)CCC3)cc1 [IPK 000 149 44] |  |  | 57.6 | 47.1
23 | O=C(COc1ccccc1)N/N=C/c1ccc([N+](=O)[O-])o1 [IPK 000 149 78] | 3.6 | 15.2 |  | 
24 | O=C(CSC1=NCCS1)Nc1ccc(Br)cc1F [IPK 000 150 41] | 83.3 | 78.3 |  | 
25 | C/C(Cn1nnc([N+](=O)[O-])n1)=N\Nc1c(Cl)cc(Cl)cc1Cl [IPK 000 150 48] | 16.1 | -96.3 |  | 
